# According to patent US20210355121A1, “FUSED TRICYCLIC KRAS INHIBITORS” (Incyte Corporation, priority 2020, published 2021):
# How the values were obtained:
# KRAS G12C = KRAS G12C (Homo sapiens, UniProt P01116, G12C); experiment: KRAS G12C GDP-GTP exchange assay (bodipy-GDP for GppNHp, with SOS1); format: biochemical; set-up: G12C_exchange (KRAS_G12C exchange assay IC50): scale not given here; settings: 2.5 nM bodipy-loaded KRAS G12C, 2 hours pre-incubation with inhibitor, 2 hours after GppNHp-SOS1; for IC50: read-out: G12C_exchange (KRAS_G12C exchange assay IC50)
# Procedure: The inhibitor potency of the exemplified compounds was determined in a fluorescence based guanine nucleotide exchange assay, which measures the exchange of bodipy-GDP (fluorescently labeled GDP) for GppNHp (Non-hydrolyzable GTP analog) to generate the active state of KRAS in the presence of SOS1 (guanine nucleotide exchange factor). Inhibitors were serially diluted in DMSO and a volume of 0.1 μL was transferred to the wells of a black low volume 384-well plate. 5 μL/well volume of bodipy-loaded KRAS G12C diluted to 5 nM in assay buffer (25 mM Hepes pH 7.5, 50 mM NaCl, 10 mM MgCl2 and 0.01% Brij-35) was added to the plate and pre-incubated with inhibitor for 2 hours at ambient temperature. Appropriate controls (enzyme with no inhibitor or with a G12C inhibitor (AMG-510)) were included on the plate. The exchange was initiated by the addition of a 5 μL/well volume containing 1 mM GppNHp and 300 nM SOS1 in assay buffer. The 10 μL/well reaction concentration of the bodipy-loaded KRAS G12C, GppNHp, and SOS1 were 2.5 nM, 500 uM, and 150 nM, respectively. The reaction plates were incubated at ambient temperature for 2 hours, a time estimated for complete GDP-GTP exchange in the absence of inhibitor. For the KRAS G12D and G12V mutants, similar guanine nucleotide exchange assays were used with 2.5 nM as final concentration for the bodipy loaded KRAS proteins and with 4 hours and 3 hours incubation after adding GppNHp-SOS1 mixture for G12D and G12V respectively. A cyclic peptide described to selectively bind G12D mutant (Sakamoto et al., BBRC 484.3 (2017), 605-611) or internal compounds with confirmed binding were used as positive controls in the assay plates. Fluorescence intensities were measured on a PheraStar plate reader instrument (BMG Labtech) with excitation at 485 nm and emission at 520 nm.
# Either GraphPad prism or XLfit was used to analyze the data. The IC50 values were derived by fitting the data to a four parameter logistic equation producing a sigmoidal dose-response curve with a variable Hill coefficient. Prism equation: Y=Bottom+(Top−Bottom)/(1+10^((Log IC50−X)*Hill slope)); XLfit equation: Y=(A+((B−A)/(1+((X/C)^D)))) where X is the logarithm of inhibitor concentration and Y is the response.
# [1] = system: MIA PaCa-2 (KRAS G12C) cells; experiment: KRAS_G12C cellular pERK HTRF assay; format: cell-based, human; settings: Homo sapiens, MIA PaCa-2; phospho-ERK1/2 HTRF, 4 hours incubation; read-out: G12C_pERK (KRAS_G12C pERK assay IC50)
# Procedure: MIA PaCa-2 (KRAS G12C; ATCC® CRL-1420), A427 (KRAS G12D; ATCC® HTB53), HPAF-II (KRAS G12D; ATCC® CRL-1997) and NCI-H838 (KRAS WT; ATCC® CRL-5844) cells are purchased from ATCC and maintained in RPMI 1640 media supplemented with 10% FBS (Gibco/Life Technologies). The cells are plated at 5000 cells per well (8 uL) into Greiner 384-well low volume, flat-bottom, tissue culture treated white plates and incubated overnight at 37° C., 5% CO2. The next morning, test compound stock solutions are diluted in media at 3× the final concentration, and 4 uL are added to the cells. The plate is mixed by gentle rotation for 30 seconds (250 rpm) at room temperature. The cells are incubated with the KRAS G12C and G12D compounds for 4 hours or 2 hours respectively at 37° C., 5% CO2.
# 4 uL of 4× lysis buffer with blocking reagent (1:25) (Cisbio) are added to each well and plates are rotated gently (300 rpm) for 30 minutes at room temperature. 4 uL per well of Cisbio anti Phospho-ERK 1/2 d2 is mixed with anti Phospho-ERK 1/2 Cryptate (1:1) are added to each well, mixed by rotation and incubated overnight in the dark at room temperature. Plates are read on the Pherastar plate reader at 665 nm and 620 nm wavelengths. IC50 determination is performed by fitting the curve of inhibitor percent inhibition versus the log of the inhibitor concentration using the GraphPad Prism 7 software.
# Sequence of KRAS G12C (P01116 1-188 isoform P01116-2 G12C): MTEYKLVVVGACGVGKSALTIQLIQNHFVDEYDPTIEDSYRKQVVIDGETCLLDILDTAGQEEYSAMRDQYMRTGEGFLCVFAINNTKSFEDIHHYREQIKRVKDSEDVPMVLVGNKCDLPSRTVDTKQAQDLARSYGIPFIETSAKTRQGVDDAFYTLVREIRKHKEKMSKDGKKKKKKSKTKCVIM
SMILES,IC50 (KRAS G12C),IC50 [1],G12C_exchange (KRAS_G12C exchange assay IC50) (KRAS G12C)
"CC#CC(=O)N1CC[C@H](n2ncc3c(N4CC(C)(N(C)C)C4)nc4c(F)c(-c5c(C)c(Cl)cc6[nH]ncc56)c(Cl)cc4c32)C[C@H]1CC#N (single isomer, unassigned) [Example 11b]",–,–,††
"CC#CC(=O)N1CC[C@H](n2ncc3c(N4CC(C)(N(C)C)C4)nc4c(F)c(-c5c(C)c(Cl)cc6[nH]ncc56)c(Cl)cc4c32)C[C@H]1CC#N (single isomer, unassigned) [Example 11a]",≤ 100 nM,≤ 100 nM,–
"C=C(F)C(=O)N1CC[C@H](n2ncc3c(OC[C@@H]4CCCN4C)nc4c(F)c(-c5cccc6cccc(C#N)c56)c(C)cc4c32)C[C@H]1CC#N (single isomer, unassigned) [Example 52a]",≤ 100 nM,≤ 100 nM,–
"C=CC(=O)N1CC[C@H](n2ncc3c(N4CC(N(C)C)C4)nc4c(F)c(-c5cccc(C)c5Cl)c(Cl)cc4c32)C[C@H]1CC#N [Example 23, 2-((2S,4S)-1-acryloyl-4-(8-chloro-7-(2-chloro-3-methylphenyl)-4-(3-(dimethylamino)azetidin-1-yl)-6-fluoro-1H-pyrazolo[4,3-c]quinolin-1-yl)piperidin-2-yl)acetonitrile]",≤ 100 nM,≤ 100 nM,–
"CC#CC(=O)N1CC[C@H](n2ncc3c(N4CC(C)(N(C)C)C4)nc4c(F)c(-c5cccc6cccc(C#N)c56)c(C)cc4c32)C[C@H]1CC#N (single isomer, unassigned) [Example 60a]",≤ 100 nM,≤ 100 nM,–
"Cc1c(Cl)cc2[nH]ncc2c1-c1c(Cl)cc2c(nc(N3CC(C)(N(C)C)C3)c3cnn([C@H]4CCN(C(=O)/C=C/CN(C)C)[C@H](CC#N)C4)c32)c1F (single isomer, unassigned) [Example 10b]",–,–,††
"C=C(F)C(=O)N1CC[C@H](n2ncc3c(N4CC(N(C)C)C4)nc4c(F)c(-c5c(C)c(Cl)cc6[nH]ncc56)c(Cl)cc4c32)C[C@H]1CC#N (single isomer, unassigned) [Example 8b]",–,–,††
"Cc1c(Cl)cc2[nH]ncc2c1-c1c(Cl)cc2c(nc(N3CC(N(C)C)C3)c3cnn([C@H]4CCN(C(=O)/C=C/CN(C)C)[C@H](CC#N)C4)c32)c1F (single isomer, unassigned) [Example 4b]",–,–,††
"Cc1c(Cl)cc2[nH]ncc2c1-c1c(Cl)cc2c(nc(N3CC(C)(N(C)C)C3)c3cnn([C@H]4CCN(C(=O)/C=C/C(F)F)[C@H](CC#N)C4)c32)c1F (single isomer, unassigned) [Example 14b]",–,–,††
"CC#CC(=O)N1CC[C@H](n2ncc3c(N4CC(N(C)C)C4)nc4c(F)c(-c5c(C)c(Cl)cc6[nH]ncc56)c(Cl)cc4c32)C[C@H]1CC#N (single isomer, unassigned) [Example 9b]",–,–,††
"Cc1c(Cl)cc2[nH]ncc2c1-c1c(Cl)cc2c(nc(N3CC(N(C)C)C3)c3cnn([C@H]4CCN(C(=O)/C=C/C(F)F)[C@H](CC#N)C4)c32)c1F (single isomer, unassigned) [Example 7b]",–,–,††
"C=C(F)C(=O)N1CC[C@H](n2ncc3c(N4CC(C)(N(C)C)C4)nc4c(F)c(-c5c(C)c(Cl)cc6[nH]ncc56)c(Cl)cc4c32)C[C@H]1CC#N (single isomer, unassigned) [Example 15b]",–,–,††
"C=CC(=O)N1CC[C@H](n2ncc3c(N4CC(C)(N(C)C)C4)nc4c(F)c(-c5c(C)c(Cl)cc6[nH]ncc56)c(Cl)cc4c32)C[C@H]1CC#N (single isomer, unassigned) [Example 16b]",–,–,††

# Further lines, results first:
IC50 (KRAS G12C),IC50 [1],G12C_exchange (KRAS_G12C exchange assay IC50) (KRAS G12C),SMILES
≤ 100 nM,≤ 100 nM,–,"CC#CC(=O)N1CC[C@H](n2ncc3c(OC[C@@H]4CCCN4C)nc4c(F)c(-c5c(C)c(C)cc6[nH]ncc56)c(Cl)cc4c32)C[C@H]1CC#N (single isomer, unassigned) [Example 78a]"
≤ 100 nM,≤ 100 nM,–,"COC/C=C/C(=O)N1CC[C@H](n2ncc3c(O[C@@H](C)[C@@H]4CCCN4C)nc4c(F)c(-c5cccc6cccc(Cl)c56)c(Cl)cc4c32)C[C@H]1CC#N [Example 88, 2-((2S,4S)-4-(8-chloro-7-(8-chloronaphthalen-1-yl)-6-fluoro-4-((S)-1-((S)-1-methylpyrrolidin-2-yl)ethoxy)-1H-pyrazolo[4,3-c]quinolin-1-yl)-1-((E)-4-methoxybut-2-enoyl)piperidin-2-yl)acetonitrile]"
≤ 100 nM,≤ 100 nM,–,"COC/C=C/C(=O)N1CC[C@H](n2ncc3c(N4CC(C)(N(C)C)C4)nc4c(F)c(-c5c(C)c(C)cc6[nH]ncc56)c(C)cc4c32)C[C@H]1CC#N (single isomer, unassigned) [Example 65a]"
≤ 100 nM,≤ 100 nM,–,"Cc1c(Cl)cc2[nH]ncc2c1-c1c(Cl)cc2c(nc(N3CC(C)(N(C)C)C3)c3cnn([C@H]4CCN(C(=O)/C=C/CF)[C@H](CC#N)C4)c32)c1F (single isomer, unassigned) [Example 13a]"
≤ 100 nM,≤ 100 nM,–,"COC/C=C/C(=O)N1CC[C@H](n2ccc3c(OC[C@@H]4CCCN4C)nc4c(F)c(-c5c(C)c(C)cc6[nH]ncc56)c(Cl)cc4c32)C[C@H]1CC#N (single isomer, unassigned) [Example 47a]"
–,–,††,"COC/C=C/C(=O)N1CC[C@H](n2ncc3c(N4CC(N(C)C)C4)nc4c(F)c(-c5c(C)c(Cl)cc6[nH]ncc56)c(Cl)cc4c32)C[C@H]1CC#N (single isomer, unassigned) [Example 5b]"
≤ 100 nM,–,–,"C=CC(=O)N1CC[C@H](n2ncc3c(OC[C@@H]4CCCN4C)nc4c(F)c(-c5c(C)c(Cl)cc6[nH]ncc56)c(Cl)cc4c32)C[C@H]1CC#N (single isomer, unassigned) [Example 20b]"
–,–,††,"Cc1c(Cl)cc2[nH]ncc2c1-c1c(Cl)cc2c(nc(N3CC(C)(N(C)C)C3)c3cnn([C@H]4CCN(C(=O)/C=C/CF)[C@H](CC#N)C4)c32)c1F (single isomer, unassigned) [Example 13b]"
–,–,††,"Cc1c(Cl)cc2[nH]ncc2c1-c1c(Cl)cc2c(nc(N3CC(N(C)C)C3)c3cnn([C@H]4CCN(C(=O)/C=C/CF)[C@H](CC#N)C4)c32)c1F (single isomer, unassigned) [Example 6b]"
–,–,††,"COC/C=C/C(=O)N1CC[C@H](n2ncc3c(N4CC(C)(N(C)C)C4)nc4c(F)c(-c5c(C)c(Cl)cc6[nH]ncc56)c(Cl)cc4c32)C[C@H]1CC#N (single isomer, unassigned) [Example 12b]"
–,–,††,"COC/C=C/C(=O)N1CC[C@H](n2ncc3c(OC[C@@H]4CCCN4C)nc4c(F)c(-c5c(C)c(Cl)cc6[nH]ncc56)c(Cl)cc4c32)C[C@H]1CC#N (single isomer, unassigned) [Example 19b]"
–,–,††,"CC#CC(=O)N1CC[C@H](n2ncc3c(OC[C@@H]4CCCN4C)nc4c(F)c(-c5c(C)c(Cl)cc6[nH]ncc56)c(Cl)cc4c32)C[C@H]1CC#N (single isomer, unassigned) [Example 18b]"
